Measured values from publication PMC6141739, “TFPI-2 Protects Against Gram-Negative Bacterial Infection” (Frontiers in Immunology, 2018).

Key:
Escherichia coli [1] = test: Viable count assay (VCA); assay type: cell-based, Escherichia coli ATCC 25922
Procedure: Escherichia coli bacteria were grown to mid-logarithmic phase in 10 ml of (3% w/v) Todd-Hewitt (TH), bacteria were washed and diluted in buffer 10 mM Tris, pH 7.4, containing 150 mM NaCl, either alone or with the presence of human 20% citrate plasma, lepirudin, heparin, EDTA plasma, or serum. 1–2 × 10^6 cfu/ml bacteria were incubated in a total volume of 50 μl with the indicated concentrations of C-terminal TFPI-2 derived peptides for 2 h at 37°C. Alternatively, 1–2 × 10^6 cfu/ml of E. coli bacteria in the presence or absence of EDC34 were incubated either in PBS alone or PBS supplemented with 25% of human citrated plasma, immunoglobulins depleted citrated plasma, or immunoglobulins depleted citrated plasma supplemented with 10 μg of IgG/μl, for 2 h at 37°C. Serial of dilutions of the reaction mixture were plated on TH agar plates, followed by the incubation at 37°C overnight. The number of colony forming units was determined as a percentage to control sample.

P. aeruginosa = test: Viable count assay (VCA); assay type: cell-based, Pseudomonas aeruginosa; conditions: 20% human citrate plasma, 2 h 37°C (Figure 3A,B); text does not separate the two bacteria
human IgG = test: Surface plasmon resonance on IgG-coated chip; assay type: binding; conditions: SPR, IgG on CM5 chip, peptide 25–400 nM, 25°C, Hepes running buffer pH 7.5 (Figure 3E)
Procedure: IgG was immobilized (15 μg/mL) on a CM5 sensor chip via amine coupling in a 10 mM sodium acetate buffer (pH 4). A blank immobilization was performed in flow cell one. EDC34 was injected at different concentrations (25–400 nM) at a flow rate of 30 μl/min and a temperature of 25°C over the flow cells using a running buffer containing 10 mm Hepes, 150 mm NaCl, 0.005% surfactant P20, and 3.4 mM EDTA (pH 7.5). Regeneration of the sensor surface was conducted in 0.5 M sodium chloride. The analysis was performed using a Biacore X100 instrument (GE Healthcare, Uppsala, Sweden) and the data was fitted using a 1:1 binding model.

[2] = system: human IgG on E. coli bacteria; test: Pull down assay, IgG opsonization on the bacterial surface; design: species or system Escherichia coli
Procedure: In a total volume of 500 μl PBS buffer, 2 μM of EDC34, and 8 μM of IgG were incubated for 24 h at 37°C. Subsequently, E. coli bacteria (1–2 × 10^6 cfu/ml) were added, and then the mixture was incubated for additional 1 h. In a parallel experiment, the bacteria in the presence of absence of EDC34 were incubated for 30 min at 37°C before IgG was added for 1 h at 37°C. Samples were then centrifuged, bacterial pellets were washed twice with PBS and then re-suspended in 360 μl of 0.1 M glycine, pH 2.0 to elute the bound proteins. The pH of the eluted material was raised to 7.5 with 1 M Tris. Thereafter, 100 μl of 100% TCA were added to precipitate the eluted proteins followed by incubation for 10 min at −20° C followed by a centrifugation step for 20 min at 15,000 × g (4°C). The pellets were washed with acetone and left to air dry before they were dissolved in loading dye and analyzed under non-reducing conditions by SDS-PAGE, followed by Western blot analysis.

[3] = system: C1q on the surface of E. coli bacteria; test: Pull down assay, C1q recruitment to the bacterial surface; design: species or system Escherichia coli; conditions: citrate plasma with 10 μM EDC34, 1 h 37°C; anti-C1q immunoblot; versus plasma alone (Figure 2B)
Fab-IgG = test: Binding to Fab fragment of IgG, western blot; conditions: 6 μM EDC34 with 6 μM Fab-IgG, 30 min 37°C; western blot (Figure 1E)
Procedure: (§1) Six μM of EDC34 was either incubated alone or with IgGs in 10 mM Tris, 150 mM NaCl, pH 7.4 buffer, under similar concentrations for 15, 30, 60, 120 min or 24 h at 37°C. In another experiment, 6 μM of EDC34 was pre-incubated with 50 μM of TCEP (tris(2-carboxyethyl)phosphine) for 30 min at room temperature before IgG (6 μM) was added. The mixture was further incubated for 24 h at 37°C. In another experiment, 6 μM of IgG or Fab-IgG or Fc-IgG were incubated with or without 6 μM of EDC34 in 10 mM Tris, 150 mM NaCl, pH 7.4 buffer for 30 min at 37°C. Proteins and peptides were transferred to nitrocellulose membranes (Hybond-C), blocked by 5% (w/v) skimmed milk, washed and incubated with rabbit polyclonal antibodies to CAK27 or rabbit polyclonal antibodies to IgG (or 1:1,000) (Dako) or rabbit polyclonal antibodies to C1q (or 1:1,000) (Dako). Polyclonal swine anti-rabbit immunoglobulin secondary HRP antibody (1:1,000) was used for detection and an enhanced chemiluminescent Substrate (LumiGLO) developing system (Upstate cell signaling solutions).

C1q = conditions: cited from earlier work
From the text: (§2) Previous studies have shown that complement activation can be amplified by targeting certain proteins such as complement factor C3 ([33]). Elvington et al. for instance described in 2012 a method showing that complement activation can be used as cancer therapy. To this end the authors employed a fusion protein of a complement receptor and an IgG Fc fragment to improve the outcome of mAb therapy in a murine metastatic cancer model ([33]). […] Moreover EDC34 is able to up re ...

C3a = conditions: cited from earlier work
From the text: as §2

Gram-negative bacteria = conditions: cited from earlier work
From the text: as §2

IgE = IgE (Homo sapiens, UniProt P01854); test: Binding to IgE, SDS-PAGE and immunoblotting; conditions: 0.5 μg EDC34 with 3 μg IgE, 1 h 37°C; immunoblot (Figure 1C)
Sequence of IgE (P01854 1-428 isoform P01854-1): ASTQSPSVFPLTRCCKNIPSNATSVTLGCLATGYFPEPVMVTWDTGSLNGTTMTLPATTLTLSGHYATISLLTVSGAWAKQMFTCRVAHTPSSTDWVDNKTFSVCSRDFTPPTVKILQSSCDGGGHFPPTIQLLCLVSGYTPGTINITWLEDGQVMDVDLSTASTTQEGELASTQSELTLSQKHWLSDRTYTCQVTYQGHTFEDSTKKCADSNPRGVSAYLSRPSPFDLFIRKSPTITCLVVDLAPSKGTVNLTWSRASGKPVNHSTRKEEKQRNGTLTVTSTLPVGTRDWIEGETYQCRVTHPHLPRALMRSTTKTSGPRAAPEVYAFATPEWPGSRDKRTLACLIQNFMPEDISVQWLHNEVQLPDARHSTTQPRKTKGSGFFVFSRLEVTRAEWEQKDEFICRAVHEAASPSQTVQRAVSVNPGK
Procedure: (§3) Three μg of IgG or IgA or IgE or IgM were incubated in 20 μl of buffer (10 mM Tris, 150 mM NaCl, pH 7.4), either alone or with 0.5 μg (6 μM) of EDC34 for 1 h at 37°C. Samples were diluted in SDS buffer and analyzed under non-reducing conditions by SDS-PAGE on Criterion TGX Any kD Gel (BioRad). Alternatively, EDC34 (6 μM) was incubated either alone or in PBS containing 20% serum, citrate, lepirudin, EDTA plasma at different time points (15, 30, 60, and 120 min). Samples were analyzed under non-reducing conditions.

IgG = test: Binding to IgG, SDS-PAGE and immunoblotting; design: species or system human
Procedure: as §3
as §1, with “Polyclonal swine anti-rabbit immunoglobulin secondary HRP antibody (1:1,000) was used for detection and an enhanced chemiluminescent Substrate (LumiGLO) developing system (Upstate cell signaling solutions).” left out

Escherichia coli [4] = test: Radial diffusion assay (RDA); assay type: cell-based; conditions: 100 μM peptide, high salt (150 mM NaCl), n = 3 (Figure 3C,D)
Procedure: Escherichia coli was grown to mid-logarithmic phase in 10 ml (3% w/v) of trypticase soy broth (TSB). Bacteria were washed and re-suspended in 10 mM Tris, pH 7.4 to obtain a dilution of 1% of bacterial suspension (1–2 × 10^9 colony forming units cfu/ml). Subsequently, 6.6 μl of bacteria were added to 15 ml of melted underlay agarose gel consisting of 0.03% (w/v) TSB, 1% (w/v) low electroendosmosis type (EEO) agarose and 0.02% (v/v) Tween 20 (Sigma) with or without 150 mM NaCl. The mixture was poured to a 144 mm sterile petri dish and left to solidify. After that, 4 mm diameter wells were punctured and 100 μM peptides were added to each well. Plates were incubated for 3 h at 37°C and then covered by adding 15 ml of over-lay gel consisting of 6% TSB and 1% Low-EEO agarose in Millipore water. After 16–24 h of incubation at 37°C, the peptides diffusion around each well formed the zone of inhibition, which corresponded to the peptide's antimicrobial activity.

IgA = test: Binding to IgA, SDS-PAGE and immunoblotting; design: species or system human; conditions: 0.5 μg EDC34 with 3 μg IgA, 1 h 37°C; immunoblot (Figure 1C)
Procedure: as §3

IgM = test: Binding to IgM, SDS-PAGE and immunoblotting; design: species or system human; conditions: 0.5 μg EDC34 with 3 μg IgM, 1 h 37°C; immunoblot (Figure 1C)
Sequence of IgM (P01871 1-453 isoform P01871-1): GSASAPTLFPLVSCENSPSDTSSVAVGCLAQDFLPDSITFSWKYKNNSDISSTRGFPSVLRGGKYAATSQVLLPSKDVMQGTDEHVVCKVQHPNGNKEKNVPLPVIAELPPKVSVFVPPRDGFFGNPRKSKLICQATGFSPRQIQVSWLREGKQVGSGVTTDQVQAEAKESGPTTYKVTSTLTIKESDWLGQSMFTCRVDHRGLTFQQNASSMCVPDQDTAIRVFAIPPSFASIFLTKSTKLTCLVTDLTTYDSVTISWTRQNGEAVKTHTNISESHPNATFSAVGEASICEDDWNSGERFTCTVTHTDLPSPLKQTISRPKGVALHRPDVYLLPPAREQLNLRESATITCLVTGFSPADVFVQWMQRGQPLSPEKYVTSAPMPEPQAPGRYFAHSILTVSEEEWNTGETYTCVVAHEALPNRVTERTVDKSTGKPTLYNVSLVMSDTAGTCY
Sequence of IgM (P01591 23-159, further chain): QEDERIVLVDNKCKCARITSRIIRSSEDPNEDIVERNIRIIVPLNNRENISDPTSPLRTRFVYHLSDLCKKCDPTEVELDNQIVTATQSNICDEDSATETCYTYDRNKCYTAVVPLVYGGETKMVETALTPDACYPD
Procedure: as §3

Fc-IgG = test: Binding to Fc fragment of IgG, western blot; conditions: 6 μM EDC34 with 6 μM Fc-IgG, 30 min 37°C; western blot (Figure 1E)
Procedure: as §1

Sequence: DAAQEPTGNNAET [DAA14, control peptide derived from the N-terminal region of human TFPI-2, reference compound]
- antimicrobial activity in plasma, E. coli (Escherichia coli [1]; 20% human citrate plasma, 2 h 37°C (Figure 3A,B), text does not separate the two bacteria): no antimicrobial activity
- antimicrobial activity in plasma, P. aeruginosa (P. aeruginosa): no antimicrobial activity

Sequence: EDCKRACAKALKKKKKMPKLRFASRIRKIRKKQF [EDC34, C-terminal peptide derived from human TFPI-2]
- affinity for human IgG (human IgG): highest affinity
- opsonization of immunoglobulin on the bacterial surface ([2]; EDC34 (2 μM) pre-incubated with IgG (8 μM) 24 h in PBS, then E. coli 1 h 37°C (Figure 2A)): increased opsonization
- opsonization of immunoglobulin on the bacterial surface ([2]; EDC34 first preincubated with E. coli bacteria, then mixed with human IgG (Figure 2A)): less pronounced
- C1q at the surface of E. coli bacteria [3]: recruitment of C1q
- binding to Fab fragment of IgG (Fab-IgG): only the Fc fragment is able to bind
- binding of C1q to bacterial surfaces (C1q): enhances the binding of C1q to bacterial surfaces
- antimicrobial activity of C3a (C3a): able to up regulate the antimicrobial activity of C3a
- eradication of Gram-negative bacteria in vivo (Gram-negative bacteria): significant capacity to eradicate
- antimicrobial activity against E. coli (Escherichia coli [1]; EDC34 6 μM, 10 mM Tris, 150 mM NaCl, pH 7.4 with 20% citrate plasma, 2 h 37°C, n = 3 (Figure 1A)): completely eradicate the bacteria
- antimicrobial activity against E. coli (Escherichia coli [1]; EDC34 6 μM, buffer with 20% EDTA plasma, 2 h 37°C, n = 3 (Figure 1A)): decreased
- bacterial survival rate (Escherichia coli [1]; EDC34 6 μM, buffer with 20% heparin plasma, 2 h 37°C, n = 3 (Figure 1A)): exceeding 80%
- antimicrobial activity against E. coli (Escherichia coli [1]; EDC34 6 μM, buffer with 20% lepirudin plasma, 2 h 37°C, n = 3 (Figure 1A)): decreased
- antimicrobial activity against E. coli (Escherichia coli [1]; EDC34 6 μM, buffer with 20% serum, 2 h 37°C, n = 3 (Figure 1A)): decreased
- killing of E. coli (Escherichia coli [1]; EDC34 in PBS alone, 2 h 37°C, n = 3 (Figure 2C)): moderate killing activity
- killing of E. coli (Escherichia coli [1]; EDC34 in PBS with 25% citrate plasma, 2 h 37°C, n = 3 (Figure 2C)): ~100%
- antimicrobial activity (Escherichia coli [1]; EDC34 in PBS with 25% immunoglobulin-depleted citrate plasma reconstituted with IgG, 2 h 37°C, n = 3 (Figure 2C)): retained its full antimicrobial activity
- bacterial survival (Escherichia coli [1]; EDC34 in PBS with 25% immunoglobulin-depleted citrate plasma, 2 h 37°C, n = 3 (Figure 2C)): Bacterial survival was increased
- binding to IgE (IgE): avidly binds
- binding to IgG (IgG; 0.5 μg EDC34 with 3 μg IgG, 10 mM Tris, 150 mM NaCl, pH 7.4, 1 h 37°C, immunoblot (Figure 1C)): avidly binds
- interaction with IgG over time (IgG; EDC34 and IgG 1:1 (6 μM), 37°C, after 24 h incubation (Figure 1D)): entirely absorbed
- antimicrobial activity, zone of inhibition (Escherichia coli [4]): able impair bacterial growth
- binding to IgA (IgA): avidly binds
- binding to IgM (IgM): avidly binds
- binding to Fc fragment of IgG (Fc-IgG): able to bind
